Changes are numbered by the printed parent chain.

The target in one test is T1, BaF3-FLT3-ITD-F691L (Homo sapiens, UniProt P36888, INS600HVDFREYEYD/F691L, cells depend on it).
T1 sequence (P36888 with tags, fused parts or gaps INS600HVDFREYEYD/F691L): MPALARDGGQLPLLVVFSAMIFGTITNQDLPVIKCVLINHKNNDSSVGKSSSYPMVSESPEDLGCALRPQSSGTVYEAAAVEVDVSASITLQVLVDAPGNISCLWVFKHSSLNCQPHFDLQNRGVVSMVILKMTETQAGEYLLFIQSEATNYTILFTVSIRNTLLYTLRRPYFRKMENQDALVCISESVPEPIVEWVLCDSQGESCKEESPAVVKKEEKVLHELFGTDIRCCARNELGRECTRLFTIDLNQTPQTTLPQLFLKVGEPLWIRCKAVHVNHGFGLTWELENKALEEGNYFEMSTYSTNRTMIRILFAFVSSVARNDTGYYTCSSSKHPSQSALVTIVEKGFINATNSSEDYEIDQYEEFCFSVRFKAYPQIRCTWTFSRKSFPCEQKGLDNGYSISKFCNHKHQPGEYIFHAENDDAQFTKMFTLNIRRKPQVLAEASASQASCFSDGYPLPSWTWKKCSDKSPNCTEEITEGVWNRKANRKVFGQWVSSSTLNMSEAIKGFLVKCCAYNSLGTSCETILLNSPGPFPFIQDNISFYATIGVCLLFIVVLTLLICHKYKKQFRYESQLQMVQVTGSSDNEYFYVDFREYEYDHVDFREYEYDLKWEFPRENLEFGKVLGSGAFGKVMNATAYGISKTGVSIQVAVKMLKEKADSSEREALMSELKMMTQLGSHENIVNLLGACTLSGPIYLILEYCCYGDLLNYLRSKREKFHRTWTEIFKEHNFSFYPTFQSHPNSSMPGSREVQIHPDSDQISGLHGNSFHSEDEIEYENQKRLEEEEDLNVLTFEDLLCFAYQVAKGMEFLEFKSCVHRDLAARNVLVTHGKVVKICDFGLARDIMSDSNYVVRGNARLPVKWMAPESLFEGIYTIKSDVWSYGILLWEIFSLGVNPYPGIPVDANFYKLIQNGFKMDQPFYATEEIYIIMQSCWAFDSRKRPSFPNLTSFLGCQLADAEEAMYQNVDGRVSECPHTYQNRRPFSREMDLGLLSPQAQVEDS
Briefly: CTB viability assay CS0047, BaF3-FLT3-ITD-F691L. Type of test: cell-based, murine. The following applies: BaF3-FLT3-ITD-F691L cells, CellTiter Blue viability, 72 hours; read-out: Cell Assay: CS0047:BaF3-FLT3-ITD-F691L CTB:IC50. The source says:
(§1) Gene constructs containing the human FLT3 sequences FLT3-ITD, FLT3-ITD-F691L, FLT3-ITD-D835V and FLT3-D835V were synthesized by reverse translation of the human protein sequences, with codons optimized for mammalian expression. Sequence of the internal tandem duplication (ITD) was based on the MV4-11 ITD sequence. Synthetic DNA constructs were cloned into the pMSCV puro retroviral vector (Clontech) and transfected into the EcoPack2-293 packaging cell line (Clontech) to generate retroviruses that contain the different FLT3 constructs. Viruses were transduced into the IL-3-dependent, murine […] cell line, Ba/F3, and selected for puromycin resistance and IL-3 independence. All cell lines were cloned by limiting dilution and clones were used for all subsequent cell assays. Overexpression of the FLT3 mutants in the Ba/F3 cells results in constitutive phosphorylation of the exogenous FLT3 protein, which is required for IL-3 independence.
(§2) Cell lines were serum starved overnight in media containing 0.5% FBS, plated at 15,000 cells/well in 96-well white-walled tissue culture plates, and 3-fold serial dilutions of test compounds of Formula I were added for 72 hours at 37° C. CellTiter Blue (CTB, Promega) was added and incubated for an additional 3 hours at 37° C. Fluorescence was read at 560 nm excitation, 590 nm emission. Wells with CTB+media only were used for background subtraction, and the fluorescence of compound-treated cells was normalized to the fluorescence of DMSO-treated cells. IC50s were determined using Igor Pro software. All compounds are assayed in duplicate cell plates.

The next test has as its target T2, BaF3-FLT3-ITD-D835V (Homo sapiens, UniProt P36888, INS600HVDFREYEYD/D835V, cells depend on it).
T2 sequence (P36888 with tags, fused parts or gaps INS600HVDFREYEYD/D835V): T1 sequence (P36888 with tags, fused parts or gaps INS600HVDFREYEYD/F691L) with L701F, D845V
As to the kind of experiment: CTB viability assay CS0048, BaF3-FLT3-ITD-D835V. The conditions noted are these: BaF3-FLT3-ITD-D835V cells, CellTiter Blue viability, 72 hours; read-out: Cell Assay: CS0048: BaF3-FLT3-ITD-D835V CTB:IC50. Type of test: cell-based, murine.
Source text: as §1, §2

With `Cc1nn(C2CC2)cc1Nc1ncc(-c2ccc(CC(=O)Nc3cc(C4(C(F)(F)F)CC4)on3)c(F)c2)c(C)n1` [P-130, 2-[4-[2-[(1-cyclopropyl-3-methylpyrazol-4-yl)amino]-4-methyl-pyrimidin-5-yl]-2-fluorophenyl]-N-[5-[1-(trifluoromethyl)cyclopropyl]isoxazol-3-yl]acetamide], the GI50 on BaF3-FLT3-ITD-F691L and on BaF3-FLT3-ITD-D835V was 10 to 50 nM in each case.
In the case of `CC(C)c1nn(C)cc1Nc1ncc(-c2ccc(CC(=O)Nc3cc(C4(C(F)(F)F)CC4)on3)c(F)c2)cn1` [P-168, 2-[2-fluoro-4-[2-[(3-isopropyl-1-methyl-pyrazol-4-yl)amino]pyrimidin-5-yl]phenyl]-N-[5-[1-(trifluoromethyl)cyclopropyl]isoxazol-3-yl]acetamide], the GI50 at BaF3-FLT3-ITD-F691L and at BaF3-FLT3-ITD-D835V was 10 to 50 nM throughout.
As to `COc1cnccc1Nc1ncc(-c2ccc(CC(=O)Nc3cc(C4(C(F)(F)F)CC4)on3)c(F)c2)cn1` [P-105, 2-[2-fluoro-4-[2-[(3-methoxy-4-pyridyl)amino]pyrimidin-5-yl]phenyl]-N-[5-[1-(trifluoromethyl)cyclopropyl]isoxazol-3-yl]acetamide], the GI50 on BaF3-FLT3-ITD-F691L lay in the range of 10 to 50 nM; on BaF3-FLT3-ITD-D835V, 50 to 100 nM.
In the same order, the values of `COc1nn(C(F)F)cc1Nc1ncc(-c2ccc(CC(=O)Nc3cc(C4(C(F)(F)F)CC4)on3)c(F)c2)c(C)n1` [P-144, 2-[4-[2-[[1-(difluoromethyl)-3-methoxypyrazol-4-yl]amino]-4-methyl-pyrimidin-5-yl]-2-fluorophenyl]-N-[5-[1-(trifluoromethyl)cyclopropyl]isoxazol-3-yl]acetamide] are 10 to 50 nM and 50 to 100 nM.
In the same order, the values of `Cc1nn(C)cc1Nc1ncc(-c2ccc(CC(=O)Nc3cc(C4(C(F)(F)F)CC4)on3)c(F)c2)cc1C#N` [P-156, 2-[4-[5-cyano-6-[(1,3-dimethylpyrazol-4-yl)amino]-3-pyridyl]-2-fluorophenyl]-N-[5-[1-(trifluoromethyl)cyclopropyl]isoxazol-3-yl]acetamide] are 10 to 50 nM and 10 to 50 nM.
In the same order, the values of `Cc1nn(C)cc1Nc1ncc(-c2ccc(CC(=O)Nc3cc(C4(C(F)(F)F)CC4)on3)c(F)c2)c(N)n1` [P-149, 2-[4-[4-amino-2-[(1,3-dimethylpyrazol-4-yl)amino]pyrimidin-5-yl]-2-fluorophenyl]-N-[5-[1-(trifluoromethyl)cyclopropyl]isoxazol-3-yl]acetamide] are 10 to 50 nM and 10 to 50 nM.
Take `Cn1cc(Nc2ncc(-c3ccc(CC(=O)Nc4cc(C5(C(F)(F)F)CC5)on4)c(F)c3)c(C(F)(F)F)n2)cn1` [P-027, 2-[2-fluoro-4-[2-[(1-methylpyrazol-4-yl)amino]-4-(trifluoromethyl)pyrimidin-5-yl]phenyl]-N-[5-[1-(trifluoromethyl)cyclopropyl]isoxazol-3-yl]acetamide]: the GI50 at BaF3-FLT3-ITD-F691L fell in the range of 50 to 100 nM; at BaF3-FLT3-ITD-D835V, 10 to 50 nM.
In the same order, the values of `CCc1nn(C2CCS(=O)(=O)C2)cc1Nc1ncc(-c2ccc(CC(=O)Nc3cc(C4(C(F)(F)F)CC4)on3)c(F)c2)cn1` (stereo not drawn) [P-012, 2-[4-[2-[[1-(1,1-dioxothiolan-3-yl)-3-ethylpyrazol-4-yl]amino]pyrimidin-5-yl]-2-fluorophenyl]-N-[5-[1-(trifluoromethyl)cyclopropyl]isoxazol-3-yl]acetamide] are 10 to 50 nM and 10 to 50 nM.
In the same order, the values of `Cc1nc(Nc2cnn(C3CC3)c2C)ncc1-c1ccc(CC(=O)Nc2cc(C3(C(F)(F)F)CC3)on2)c(F)c1` [P-129, 2-[4-[2-[(1-cyclopropyl-5-methylpyrazol-4-yl)amino]-4-methyl-pyrimidin-5-yl]-2-fluorophenyl]-N-[5-[1-(trifluoromethyl)cyclopropyl]isoxazol-3-yl]acetamide] are 10 to 50 nM and 10 to 50 nM.
